Results as given in patent publication US10195197B2, “Combination therapy with glutaminase inhibitors” (Calithera Biosciences, Inc., priority 2016, dated 2019).

Tested on: JIMT-1 tumors
Experiment: JIMT-1 xenograft model, antitumor efficacy (in vivo TNBC model)
Settings: single agent paclitaxel, five doses at 10 mg/kg every other day at start of study; initial regression followed by rapid regrowth; P=0.0002
Procedure: In the JIMT-1 xenograft model, the antitumor efficacy was evaluated by treating established tumors (125 mm^3 at the start of dosing) with CB-839 both as a single agent and in combination with paclitaxel, a standard-of-care chemotherapeutic agent for the treatment of TNBC. The regimen for paclitaxel (five doses at 10 mg/kg delivered every other day at the start of study) was chosen to provide suboptimal efficacy to ensure a window to evaluate the potential impact of combination treatment.

CC(=O)O[C@H]1C(=O)[C@@]2(C)[C@H]([C@H](OC(=O)c3ccccc3)[C@]3(O)C[C@H](OC(=O)[C@H](O)[C@@H](NC(=O)c4ccccc4)c4ccccc4)C(C)=C1C3(C)C)[C@]1(OC(C)=O)CO[C@@H]1C[C@@H]2O [paclitaxel]
TGI relative to vehicle control at the end of study: 73%
